Assay results published in a compilation of properties of binary mixtures (doi:10.1016/j.jct.2022.106970).

Assay: xn = mol fraction of the nth substance listed
Conditions: 92.3 kPa

CCO + CCCC[NH3+].O=C[O-]
x2 = 0
Conditions | speed of sound [m/s] | viscosity [mPa·s]
293.15 K | 1160.1 | 1.238
298.15 K | 1142.9 | 1.092
308.15 K | 1109 | 0.912
313.15 K | 1092.3 | 0.836

CCCC[NH3+].O=C[O-] + CCO
Conditions | speed of sound, 293.15 K [m/s] | speed of sound, 298.15 K [m/s] | speed of sound, 303.15 K [m/s] | speed of sound, 308.15 K [m/s] | speed of sound, 313.15 K [m/s] | viscosity, 293.15 K [mPa·s] | viscosity, 298.15 K [mPa·s] | viscosity, 303.15 K [mPa·s] | viscosity, 308.15 K [mPa·s] | viscosity, 313.15 K [mPa·s]
x1 = 0.0484 | 1197.4 | 1180.8 | 1164.2 | 1147.9 | 1131.6 | 1.91 | 1.672 | 1.512 | 1.37 | 1.247
x1 = 0.1038 | 1232 | 1215.9 | 1199.9 | 1184 | 1168.2 | 2.85 | 2.5 | 2.26 | 2.04 | 1.845
x1 = 0.1507 | – | 1242.7 | 1227 | 1211.4 | 1196 | – | 3.44 | 3.07 | 2.76 | 2.49
x1 = 0.2004 | 1283.9 | – | 1253.1 | – | 1222.7 | 5.28 | – | 4.15 | – | 3.33
x1 = 0.2564 | 1310.4 | 1295.2 | – | – | 1250.5 | 7.29 | 6.4 | – | – | 4.54
x1 = 0.2938 | 1326.3 | 1311.4 | 1296.6 | 1281.9 | 1267.4 | 9 | 7.92 | 6.99 | 6.2 | 5.53
x1 = 0.355 | 1350.5 | 1336 | – | – | 1292.9 | 12.31 | 10.71 | – | – | 7.3
x1 = 0.3886 | – | 1348.5 | 1334.2 | 1320 | – | – | 12.67 | 11.04 | 9.68 | –
x1 = 0.4521 | 1384.5 | 1370.5 | – | – | 1328.9 | 19.7 | 16.96 | – | – | 11.16
x1 = 0.5005 | 1399.2 | 1385.4 | – | 1358.1 | 1344.6 | 24.9 | 21.3 | – | 15.84 | 13.79
x1 = 0.5487 | 1413.1 | 1399.5 | 1386 | 1372.7 | 1359.4 | 30.5 | 25.8 | 22 | 18.89 | 16.39
x1 = 0.5982 | 1426.3 | 1412.9 | – | 1386.5 | 1373.5 | 37.6 | 31.7 | – | 23.1 | 19.7
x1 = 0.6393 | 1436.7 | 1423.5 | 1410.4 | – | 1384.7 | 44.9 | 37.5 | 31.5 | – | 23
x1 = 0.6993 | 1450.9 | 1437.9 | 1425.1 | – | 1399.8 | 57.4 | 47.4 | 39.5 | – | 28.3
x1 = 0.749 | 1462.1 | 1449.3 | 1436.6 | 1424.1 | 1411.7 | 70.3 | 57.5 | 47.7 | 39.9 | 33.8
x1 = 0.7972 | – | 1459.5 | 1447 | 1434.7 | 1422.5 | – | 69.5 | 57.1 | 47.4 | 39.8
x1 = 0.8487 | 1482 | – | 1457.2 | 1445.1 | 1433.2 | 103.8 | – | 68.4 | 56.6 | 47.2
x1 = 0.8993 | 1491.4 | 1479.1 | 1467 | 1455 | 1443.2 | 126.4 | 101.1 | 81.9 | 67.2 | 55.7
x1 = 0.9444 | – | – | 1475.2 | 1463.4 | 1451.8 | – | – | 95.8 | 78.1 | 64.4
x1 = 1 | 1508.6 | 1496.5 | 1484.7 | 1473.1 | 1461.7 | 182.3 | 143.6 | 114.7 | 92.7 | 76.1
